Experimental data as given in PubChem BioAssay (NCI).
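These data come from cells grown in 96-well plates and exposed to compound for 48 hours at five concentrations. TGI denotes the concentration required for complete inhibition of growth.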

Columns and labels:
Test in all cases: growth of human tumour cells (NCI), 48 h
SK-OV-3 ovarian = system: SK-OV-3 ovarian
786-0 renal = system: 786-0 renal
OVCAR-5 ovarian = system: OVCAR-5 ovarian
HCT-15 colon = system: HCT-15 colon
HT29 colon = system: HT29 colon
CAKI-1 renal = system: CAKI-1 renal
UO-31 renal = system: UO-31 renal
DU-145 prostate = system: DU-145 prostate
COLO 205 colon = system: COLO 205 colon
SN12C renal = system: SN12C renal
MALME-3M melanoma = system: MALME-3M melanoma
LOX IMVI melanoma = system: LOX IMVI melanoma
SNB-75 CNS = system: SNB-75 CNS
UACC-257 melanoma = system: UACC-257 melanoma
MOLT-4 leukemia = system: MOLT-4 leukemia
SNB-19 CNS = system: SNB-19 CNS
CCRF-CEM leukemia = system: CCRF-CEM leukemia
RXF 393 renal = system: RXF 393 renal
K-562 leukemia = system: K-562 leukemia
MDA-MB-231 breast = system: MDA-MB-231 breast
NCI-H460 lung = system: NCI-H460 lung
SF-539 CNS = system: SF-539 CNS
SK-MEL-2 melanoma = system: SK-MEL-2 melanoma
NCI-H522 lung = system: NCI-H522 lung
HOP-92 NSCLC = system: HOP-92 NSCLC
MDA-N = system: MDA-N
PC-3 prostate = system: PC-3 prostate
HCT-116 colon = system: HCT-116 colon
SF-268 CNS = system: SF-268 CNS
SK-MEL-5 melanoma = system: SK-MEL-5 melanoma
M14 melanoma = system: M14 melanoma
TK-10 renal = system: TK-10 renal
A498 renal = system: A498 renal
MDA-MB-435 = system: MDA-MB-435
HL-60(TB) leukemia = system: HL-60(TB) leukemia
SW-620 colon = system: SW-620 colon
U251 CNS = system: U251 CNS
HOP-62 NSCLC = system: HOP-62 NSCLC
UACC-62 melanoma = system: UACC-62 melanoma
HS 578T breast = system: HS 578T breast
SK-MEL-28 melanoma = system: SK-MEL-28 melanoma
EKVX NSCLC = system: EKVX NSCLC
SR leukemia = system: SR leukemia
NCI-H23 lung = system: NCI-H23 lung
ACHN renal = system: ACHN renal
OVCAR-4 ovarian = system: OVCAR-4 ovarian
BT-549 breast = system: BT-549 breast
MCF7 breast = system: MCF7 breast
NCI/ADR-RES ovarian = system: NCI/ADR-RES ovarian
IGROV1 ovarian = system: IGROV1 ovarian
SF-295 CNS = system: SF-295 CNS
OVCAR-3 ovarian = system: OVCAR-3 ovarian
HCC-2998 colon = system: HCC-2998 colon
T-47D breast = system: T-47D breast
NCI-H226 lung = system: NCI-H226 lung
OVCAR-8 ovarian = system: OVCAR-8 ovarian
KM12 colon = system: KM12 colon
A549 NSCLC = system: A549 NSCLC

## O=C1Nc2ccccc2C1=Nc1ccc(S(=O)(=O)Nc2nccs2)cc1
SK-OV-3 ovarian
  TGI: > 100 µM
786-0 renal
  TGI: > 100 µM
OVCAR-5 ovarian
  TGI: > 100 µM
HCT-15 colon
  TGI: > 100 µM
HT29 colon
  TGI: > 100 µM
CAKI-1 renal
  TGI: > 100 µM
UO-31 renal
  TGI: > 100 µM
DU-145 prostate
  TGI: > 100 µM
COLO 205 colon
  TGI: > 100 µM
SN12C renal
  TGI: > 100 µM
MALME-3M melanoma
  TGI: > 100 µM
LOX IMVI melanoma
  TGI: > 100 µM
SNB-75 CNS
  TGI: > 100 µM
UACC-257 melanoma
  TGI: > 100 µM
MOLT-4 leukemia
  TGI: > 100 µM
SNB-19 CNS
  TGI: > 100 µM
CCRF-CEM leukemia
  TGI: > 100 µM
RXF 393 renal
  TGI: > 100 µM
K-562 leukemia
  TGI: > 100 µM
MDA-MB-231 breast
  TGI: > 100 µM
NCI-H460 lung
  TGI: > 100 µM
SF-539 CNS
  TGI: > 100 µM
SK-MEL-2 melanoma
  TGI: > 100 µM
NCI-H522 lung
  TGI: > 100 µM
HOP-92 NSCLC
  TGI: > 100 µM
MDA-N
  TGI: > 100 µM
PC-3 prostate
  TGI: > 100 µM
HCT-116 colon
  TGI: > 100 µM
SF-268 CNS
  TGI: > 100 µM
SK-MEL-5 melanoma
  TGI: > 100 µM
M14 melanoma
  TGI: > 100 µM
TK-10 renal
  TGI: > 100 µM
A498 renal
  TGI: > 100 µM
MDA-MB-435
  TGI: > 100 µM
HL-60(TB) leukemia
  TGI: > 100 µM
SW-620 colon
  TGI: > 100 µM
U251 CNS
  TGI: > 100 µM
HOP-62 NSCLC
  TGI: > 100 µM
UACC-62 melanoma
  TGI: > 100 µM
HS 578T breast
  TGI: > 100 µM
SK-MEL-28 melanoma
  TGI: > 100 µM
EKVX NSCLC
  TGI: > 100 µM
SR leukemia
  TGI: > 100 µM
NCI-H23 lung
  TGI: > 100 µM
ACHN renal
  TGI: > 100 µM
OVCAR-4 ovarian
  TGI: > 100 µM
BT-549 breast
  TGI: > 100 µM
MCF7 breast
  TGI: > 100 µM
NCI/ADR-RES ovarian
  TGI: > 100 µM
IGROV1 ovarian
  TGI: > 100 µM
SF-295 CNS
  TGI: > 100 µM
OVCAR-3 ovarian
  TGI: > 100 µM
HCC-2998 colon
  TGI: > 100 µM
T-47D breast
  TGI: > 100 µM
NCI-H226 lung
  TGI: > 100 µM
OVCAR-8 ovarian
  TGI: > 100 µM
KM12 colon
  TGI: > 100 µM
A549 NSCLC
  TGI: > 100 µM

## O=S(=O)(Nc1ccccc1)c1ccc(-c2c3nc(c(-c4ccc(S(=O)(=O)Nc5ccccc5)cc4)c4ccc([nH]4)c(-c4ccc(S(=O)(=O)Nc5ccccc5)cc4)c4nc(c(-c5ccc(S(=O)(=O)Nc6ccccc6)cc5)c5ccc2[nH]5)C=C4)C=C3)cc1
SK-OV-3 ovarian
  TGI: > 31.6 µM
786-0 renal
  TGI: > 31.6 µM
OVCAR-5 ovarian
  TGI: > 31.6 µM
HCT-15 colon
  TGI: > 31.6 µM
HT29 colon
  TGI: > 31.6 µM
CAKI-1 renal
  TGI: > 31.6 µM
UO-31 renal
  TGI: > 31.6 µM
DU-145 prostate
  TGI: > 31.6 µM
COLO 205 colon
  TGI: > 31.6 µM
SN12C renal
  TGI: > 31.6 µM
MALME-3M melanoma
  TGI: > 31.6 µM
SNB-75 CNS
  TGI: > 31.6 µM
UACC-257 melanoma
  TGI: > 31.6 µM
MOLT-4 leukemia
  TGI: > 31.6 µM
SNB-19 CNS
  TGI: > 31.6 µM
CCRF-CEM leukemia
  TGI: > 31.6 µM
RXF 393 renal
  TGI: > 31.6 µM
K-562 leukemia
  TGI: > 31.6 µM
MDA-MB-231 breast
  TGI: > 31.6 µM
NCI-H460 lung
  TGI: 16.2 µM
SF-539 CNS
  TGI: > 31.6 µM
SK-MEL-2 melanoma
  TGI: > 31.6 µM
NCI-H522 lung
  TGI: > 31.6 µM
HOP-92 NSCLC
  TGI: > 31.6 µM
MDA-N
  TGI: > 31.6 µM
PC-3 prostate
  TGI: > 31.6 µM
HCT-116 colon
  TGI: > 31.6 µM
SF-268 CNS
  TGI: > 31.6 µM
SK-MEL-5 melanoma
  TGI: > 31.6 µM
M14 melanoma
  TGI: 23.6 µM
TK-10 renal
  TGI: > 31.6 µM
A498 renal
  TGI: > 31.6 µM
MDA-MB-435
  TGI: > 31.6 µM
HL-60(TB) leukemia
  TGI: > 31.6 µM
SW-620 colon
  TGI: > 31.6 µM
U251 CNS
  TGI: > 31.6 µM
UACC-62 melanoma
  TGI: > 31.6 µM
HS 578T breast
  TGI: > 31.6 µM
EKVX NSCLC
  TGI: > 31.6 µM
SR leukemia
  TGI: > 31.6 µM
NCI-H23 lung
  TGI: > 31.6 µM
ACHN renal
  TGI: 22.4 µM
OVCAR-4 ovarian
  TGI: 24.6 µM
BT-549 breast
  TGI: > 31.6 µM
MCF7 breast
  TGI: > 31.6 µM
NCI/ADR-RES ovarian
  TGI: > 31.6 µM
IGROV1 ovarian
  TGI: > 100 µM
SF-295 CNS
  TGI: > 31.6 µM
HCC-2998 colon
  TGI: > 31.6 µM
T-47D breast
  TGI: > 31.6 µM
NCI-H226 lung
  TGI: > 100 µM
OVCAR-8 ovarian
  TGI: > 31.6 µM
KM12 colon
  TGI: > 31.6 µM
A549 NSCLC
  TGI: > 31.6 µM

## COc1cc(S(=O)(=O)Nc2nc(-c3ccc(N=Cc4cccs4)cc3)cs2)ccc1Cl
SK-OV-3 ovarian
  TGI: > 100 µM
786-0 renal
  TGI: > 100 µM
OVCAR-5 ovarian
  TGI: > 100 µM
HCT-15 colon
  TGI: > 100 µM
HT29 colon
  TGI: > 100 µM
CAKI-1 renal
  TGI: > 100 µM
UO-31 renal
  TGI: > 100 µM
DU-145 prostate
  TGI: > 100 µM
COLO 205 colon
  TGI: > 100 µM
SN12C renal
  TGI: 64.1 µM
MALME-3M melanoma
  TGI: > 100 µM
LOX IMVI melanoma
  TGI: > 100 µM
SNB-75 CNS
  TGI: > 100 µM
UACC-257 melanoma
  TGI: > 100 µM
MOLT-4 leukemia
  TGI: 98.7 µM
SNB-19 CNS
  TGI: > 100 µM
CCRF-CEM leukemia
  TGI: > 100 µM
RXF 393 renal
  TGI: 49.6 µM
K-562 leukemia
  TGI: > 100 µM
MDA-MB-231 breast
  TGI: > 100 µM
NCI-H460 lung
  TGI: > 100 µM
SF-539 CNS
  TGI: > 100 µM
SK-MEL-2 melanoma
  TGI: > 100 µM
NCI-H522 lung
  TGI: > 100 µM
HOP-92 NSCLC
  TGI: > 100 µM
MDA-N
  TGI: > 100 µM
PC-3 prostate
  TGI: > 100 µM
HCT-116 colon
  TGI: > 100 µM
SF-268 CNS
  TGI: > 100 µM
SK-MEL-5 melanoma
  TGI: > 100 µM
M14 melanoma
  TGI: > 100 µM
TK-10 renal
  TGI: > 100 µM
A498 renal
  TGI: > 100 µM
MDA-MB-435
  TGI: > 100 µM
HL-60(TB) leukemia
  TGI: > 100 µM
SW-620 colon
  TGI: > 100 µM
U251 CNS
  TGI: > 100 µM
HOP-62 NSCLC
  TGI: > 100 µM
UACC-62 melanoma
  TGI: 48.7 µM
HS 578T breast
  TGI: > 100 µM
SK-MEL-28 melanoma
  TGI: > 100 µM
EKVX NSCLC
  TGI: > 100 µM
SR leukemia
  TGI: 57 µM
NCI-H23 lung
  TGI: > 100 µM
ACHN renal
  TGI: > 100 µM
OVCAR-4 ovarian
  TGI: > 100 µM
BT-549 breast
  TGI: > 100 µM
MCF7 breast
  TGI: > 100 µM
NCI/ADR-RES ovarian
  TGI: > 100 µM
IGROV1 ovarian
  TGI: > 100 µM
SF-295 CNS
  TGI: > 100 µM
OVCAR-3 ovarian
  TGI: 78.6 µM
HCC-2998 colon
  TGI: > 100 µM
T-47D breast
  TGI: > 100 µM
NCI-H226 lung
  TGI: > 100 µM
OVCAR-8 ovarian
  TGI: > 100 µM
KM12 colon
  TGI: > 100 µM
A549 NSCLC
  TGI: > 100 µM
